Reference: US11180462B2, “Microbiocidal oxadiazole derivatives” (SYNGENTA PARTICIPATIONS AG, priority 2015, dated 2021)

How the values were obtained:
[1] = tested on: Puccinia recondita f. Sp. Tritici; assay: Fungicidal activity against Puccinia recondita f. sp. tritici / wheat / leaf disc preventative (brown rust); assay type: in vivo; conditions: foliar, 200 ppm in the applied formulation, wheat leaf segments, preventative, compared to untreated control leaf disks, read-out: disease control
Method in brief: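 Compound application precedes infection: segments of wheat cv. Kanzler, sprayed at 200 ppm, are inoculated with a spore suspension after 1 day. Incubation is at 19° C. with 75% relative humidity and 12 h light/12 h darkness, and control versus untreated leaves is rated 7 to 9 days post-application.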

[2] = tested on: Puccinia recondita f. Sp. Tritici; assay: Fungicidal activity against Puccinia recondita f. sp. tritici / wheat / leaf disc curative (brown rust); assay type: in vivo; conditions: foliar, 24 h, 200 ppm in the applied formulation, wheat leaf segments, curative (applied 1 day after inoculation), compared to untreated control leaf disks, read-out: disease control
Method in brief: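 Scoring is percent disease control relative to untreated segments, made 6 to 8 days after treatment. Wheat (cv. Kanzler) leaf segments received the formulated, water-diluted compound one day post-inoculation with spores, having been kept dark at 19° C and 75% RH, then incubated under 12 h light/12 h dark at the same temperature and humidity.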

Phakopsora Pachyrhizi = assay: Fungicidal activity against Phakopsora pachyrhizi / soybean / leaf disc preventative (Asian soybean rust); assay type: in vivo; conditions: foliar, 200 ppm in the applied formulation, soybean leaf disks, compared to untreated control leaf disks, read-out: disease control
Method in brief: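 Preventative soybean leaf-disc test: discs on water agar sprayed with diluted formulated compound, inoculated one day later with spores on the lower surface. Held 24–36 h dark at 20°C, 75% rh, then 12 h light/day; percent disease control versus untreated discs scored 12–14 days after application.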

[3] = tested on: Glomerella lagenarium (Colletotrichum lagenarium); assay: Fungicidal activity against Glomerella lagenarium (Colletotrichum lagenarium) liquid culture / cucumber / preventative (anthracnose); assay type: cell-based; conditions: Colletotrichum orbiculare; 20 ppm in the applied formulation; liquid culture (PDB), growth inhibition measured photometrically after 3 to 4 days; compared to untreated control; read-out: disease control
Method in brief: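 Photometric read-out of fungal growth after 2–7 days, expressed as percent antifungal activity versus untreated check. Cryo-stored conidia in PDB; compound at 20 ppm; dark, 24 °C, 96% RH.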

O=C(C1CC1)N(Cc1ccc(-c2noc(C(F)(F)F)n2)cc1)C1CC1 [Compound 1.149, N-cyclopropyl-N-[[4-[5-(trifluoromethyl)-1,2,4-oxadiazol-3-yl]phenyl]methyl]-cyclopropane-carboxamide]
≥ 80%: pest or weed control at 200 ppm [1] | pest or weed control at 200 ppm [2] | pest or weed control at 200 ppm (Phakopsora Pachyrhizi) | inhibition of growth at 20 ppm [3]

C#CCCC(=O)N(Cc1ccc(-c2noc(C(F)(F)F)n2)cc1)OC [Compound 1.11, N-methoxy-N-[[4-[5-(trifluoromethyl)-1,2,4-oxadiazol-3-yl]phenyl]methyl]-pent-4-ynamide]
≥ 80%: pest or weed control at 200 ppm [1] | pest or weed control at 200 ppm [2] | pest or weed control at 200 ppm (Phakopsora Pachyrhizi) | inhibition of growth at 20 ppm [3]

O=C(CC(F)(F)F)N(Cc1ccc(-c2noc(C(F)(F)F)n2)cc1)C1COC1 [Compound 1.751, 3,3,3-trifluoro-N-(oxetan-3-yl)-N-[[4-[5-(trifluoromethyl)-1,2,4-oxadiazol-3-yl]phenyl]methyl]-propanamide]
≥ 80%: pest or weed control at 200 ppm [1] | pest or weed control at 200 ppm [2] | pest or weed control at 200 ppm (Phakopsora Pachyrhizi) | inhibition of growth at 20 ppm [3]

CCCN(Cc1ccc(-c2noc(C(F)(F)F)n2)cc1)C(=O)C1CCCO1 (centres unmarked) [Compound 1.663, N-propyl-N-[[4-[5-(trifluoromethyl)-1,2,4-oxadiazol-3-yl]pheny1]methyl]-tetrahydrofuran-2-carboxamide]
≥ 80%: pest or weed control at 200 ppm [1] | pest or weed control at 200 ppm [2] | pest or weed control at 200 ppm (Phakopsora Pachyrhizi) | inhibition of growth at 20 ppm [3]

CON(Cc1ccc(-c2noc(C(F)(F)F)n2)cc1)C(=O)C1(C(F)(F)F)CC1 [Compound 1.6, N-methoxy-1-(trifluoromethyl)-N-[[4-[5-(trifluoromethyl)-1,2,4-oxadiazol-3-yl]phenyl]methyl]-cyclopropane-carboxamide]
≥ 80%: pest or weed control at 200 ppm [1] | pest or weed control at 200 ppm [2] | pest or weed control at 200 ppm (Phakopsora Pachyrhizi) | inhibition of growth at 20 ppm [3]

COC(C)C(=O)N(Cc1ccc(-c2noc(C(F)(F)F)n2)cc1)OC (centres unmarked) [Compound 1.81, N,2-dimethoxy-N-[[4-[5-(trifluoromethyl)-1,2,4-oxadiazol-3-yl]phenyl]methyl]-propanamide]
≥ 80%: pest or weed control at 200 ppm [1] | pest or weed control at 200 ppm [2] | pest or weed control at 200 ppm (Phakopsora Pachyrhizi) | inhibition of growth at 20 ppm [3]

C=CCN(Cc1ccc(-c2noc(C(F)(F)F)n2)cc1)C(=O)CCOC [Compound 1.476, N-allyl-3-methoxy-N-[[4-[5-(trifluoromethyl)-1,2,4-oxadiazol-3-yl]phenyl]methyl]-propanamide]
≥ 80%: pest or weed control at 200 ppm [1] | pest or weed control at 200 ppm [2] | pest or weed control at 200 ppm (Phakopsora Pachyrhizi) | inhibition of growth at 20 ppm [3]

CON(Cc1ccc(-c2noc(C(F)(F)F)n2)cc1)C(=O)CC(C)C [Compound 1.34, N-methoxy-3-methyl-N-[[4-[5-(trifluoromethyl)-1,2,4-oxadiazol-3-yl]phenyl]methyl]-butanamide]
≥ 80%: pest or weed control at 200 ppm [1] | pest or weed control at 200 ppm [2] | pest or weed control at 200 ppm (Phakopsora Pachyrhizi) | inhibition of growth at 20 ppm [3]

CON(C)C(=O)N(Cc1ccc(-c2noc(C(F)(F)F)n2)cc1)CC(F)(F)F [Compound 3.25, 1-methoxy-1-methyl-3-(2,2,2-trifluoroethyl)-3-[[4-[5-(trifluoromethyl)-1,2,4-oxadiazol-3-yl]phenyl]methyl]urea]
≥ 80%: pest or weed control at 200 ppm [1] | pest or weed control at 200 ppm [2] | pest or weed control at 200 ppm (Phakopsora Pachyrhizi) | inhibition of growth at 20 ppm [3]

CCN(Cc1ccc(-c2noc(C(F)(F)F)n2)cc1)C(=O)C1(C)COC1 [Compound 1.508, N-ethyl-3-methyl-N-[[4-[5-(trifluoromethyl)-1,2,4-oxadiazol-3-yl]phenyl]methyl]-oxetane-3-carboxamide]
≥ 80%: pest or weed control at 200 ppm [1] | pest or weed control at 200 ppm [2] | pest or weed control at 200 ppm (Phakopsora Pachyrhizi) | inhibition of growth at 20 ppm [3]

CON(Cc1ccc(-c2noc(C(F)(F)F)n2)cc1)C(=O)C1CCC1 [Compound 1.38, N-methoxy-N-[[4-[5-(trifluoromethyl)-1,2,4-oxadiazol-3-yl]phenyl]methyl]-cyclobutane-carboxamide]
≥ 80%: pest or weed control at 200 ppm [1] | pest or weed control at 200 ppm [2] | pest or weed control at 200 ppm (Phakopsora Pachyrhizi) | inhibition of growth at 20 ppm [3]

CCCC(=O)N(C)Cc1ccc(-c2noc(C(F)(F)F)n2)cc1 [Compound 1.524, N-methyl-N-[[4-[5-(trifluoromethyl)-1,2,4-oxadiazol-3-yl]phenyl]methyl]-butanamide]
≥ 80%: pest or weed control at 200 ppm [1] | pest or weed control at 200 ppm [2] | pest or weed control at 200 ppm (Phakopsora Pachyrhizi) | inhibition of growth at 20 ppm [3]

CCN(Cc1ccc(-c2noc(C(F)(F)F)n2)cc1)C(=O)C1CCCC1 [Compound 1.495, N-ethyl-N-[[4-[5-(trifluoromethyl)-1,2,4-oxadiazol-3-yl]phenyl]methyl]-cyclopentane-carboxamide]
≥ 80%: pest or weed control at 200 ppm [1] | pest or weed control at 200 ppm [2] | pest or weed control at 200 ppm (Phakopsora Pachyrhizi) | inhibition of growth at 20 ppm [3]

CN(C)C(=O)N(Cc1ccc(-c2noc(C(F)(F)F)n2)cc1)CC(F)(F)F [Compound 3.26, 1,1-dimethyl-3-(2,2,2-trifluoroethyl)-3-[[4-[5-(trifluoromethyl)-1,2,4-oxadiazol-3-yl]phenyl]methyl]urea]
≥ 80%: pest or weed control at 200 ppm [1] | pest or weed control at 200 ppm [2] | pest or weed control at 200 ppm (Phakopsora Pachyrhizi) | inhibition of growth at 20 ppm [3]

COCCN(Cc1ccc(-c2noc(C(F)(F)F)n2)cc1)C(=O)CC(F)(F)F [Compound 1.361, 3,3,3-trifluoro-N-(2-methoxyethyl)-N-[[4-[5-(trifluoromethyl)-1,2,4-oxadiazol-3-yl]phenyl]methyl]-propanamide]
≥ 80%: pest or weed control at 200 ppm [1] | pest or weed control at 200 ppm [2] | pest or weed control at 200 ppm (Phakopsora Pachyrhizi) | inhibition of growth at 20 ppm [3]

CON(Cc1ccc(-c2noc(C(F)(F)F)n2)cc1)C(=O)C1CC1(C)C (centres unmarked) [Compound 1.47, N-methoxy-2,2-dimethyl-N-[[4-[5-(trifluoromethyl)-1,2,4-oxadiazol-3-yl]phenyl]methyl]-cyclopropane-carboxamide]
≥ 80%: pest or weed control at 200 ppm [1] | pest or weed control at 200 ppm [2] | pest or weed control at 200 ppm (Phakopsora Pachyrhizi) | inhibition of growth at 20 ppm [3]

CCC(=O)N(Cc1ccc(-c2noc(C(F)(F)F)n2)cc1)CC(F)(F)F [Compound 1.582, N-(2,2,2-trifluoroethyl)-N-[[4-[5-(trifluoromethyl)-1,2,4-oxadiazol-3-yl]phenyl]methyl]-propanamide]
≥ 80%: pest or weed control at 200 ppm [1] | pest or weed control at 200 ppm [2] | pest or weed control at 200 ppm (Phakopsora Pachyrhizi) | inhibition of growth at 20 ppm [3]

CC(C)C(=O)N(Cc1ccc(-c2noc(C(F)(F)F)n2)cc1)C(C)C [Compound 1.670, N-isopropyl-2-methyl-N-[[4-[5-(trifluoromethyl)-1,2,4-oxadiazol-3-yl]phenyl]methyl]-propanamide]
≥ 80%: pest or weed control at 200 ppm [1] | pest or weed control at 200 ppm [2] | pest or weed control at 200 ppm (Phakopsora Pachyrhizi) | inhibition of growth at 20 ppm [3]

CCC(C)N(Cc1ccc(-c2noc(C(F)(F)F)n2)cc1)C(=O)CCCOC (centres unmarked) [Compound 1.408, 4-methoxy-N-sec-butyl-N-[[4-[5-(trifluoromethyl)-1,2,4-oxadiazol-3-yl]phenyl]methyl]-butanamide]
≥ 80%: pest or weed control at 200 ppm [1] | pest or weed control at 200 ppm [2] | pest or weed control at 200 ppm (Phakopsora Pachyrhizi) | inhibition of growth at 20 ppm [3]

CC(C)N(Cc1ccc(-c2noc(C(F)(F)F)n2)cc1)C(=O)CC#N [Compound 1.683, 2-cyano-N-isopropyl-N-[[4-[5-(trifluoromethyl)-1,2,4-oxadiazol-3-yl]phenyl]methyl]-acetamide]
≥ 80%: pest or weed control at 200 ppm [1] | pest or weed control at 200 ppm [2] | pest or weed control at 200 ppm (Phakopsora Pachyrhizi) | inhibition of growth at 20 ppm [3]

CCC(C)N(Cc1ccc(-c2noc(C(F)(F)F)n2)cc1)C(=O)C1CC1F (centres unmarked) [Compound 1.401, 2-fluoro-N-sec-butyl-N-[[4-[5-(trifluoromethyl)-1,2,4-oxadiazol-3-yl]phenyl]methyl]-cyclopropane-carboxamide]
≥ 80%: pest or weed control at 200 ppm [1] | pest or weed control at 200 ppm [2] | pest or weed control at 200 ppm (Phakopsora Pachyrhizi) | inhibition of growth at 20 ppm [3]

C#CCCC(=O)N(Cc1ccc(-c2noc(C(F)(F)F)n2)cc1)C1CC1 [Compound 1.86, N-cyclopropyl-N-[[4-[5-(trifluoromethyl)-1,2,4-oxadiazol-3-yl]phenyl]methyl]-pent-4-ynamide]
≥ 80%: pest or weed control at 200 ppm [1] | pest or weed control at 200 ppm [2] | pest or weed control at 200 ppm (Phakopsora Pachyrhizi) | inhibition of growth at 20 ppm [3]

CON(Cc1ccc(-c2noc(C(F)(F)F)n2)cn1)C(=O)C1CC1 [Compound 1.570, N-methoxy-N-[[5-[5-(trifluoromethyl)-1,2,4-oxadiazol-3-yl]-2-pyridyl]methyl]cyclopropanecarboxamide]
≥ 80%: pest or weed control at 200 ppm [1] | pest or weed control at 200 ppm [2] | pest or weed control at 200 ppm (Phakopsora Pachyrhizi) | inhibition of growth at 20 ppm [3]
